Measurements published in publication PMC5733478, “A Non-imaging High Throughput Approach to Chemical Library Screening at the Unmodified Adenosine-A3 Receptor in Living Cells” (Frontiers in Pharmacology, 2017).
Like-named read-outs stand apart in the source and are kept apart here.

Columns and labels:
[1] = biological target: T1, human A3AR (Homo sapiens, UniProt P0DMS8); assay: HTS (PHERAstar FS) fluorescent ligand competition binding in live CHO cells, 25 nM CA200645 tracer; details: for displacement of CA200645 binding at the A3AR in full inhibition curves: secondary screen of top ten hits, highest concentration 10 μM, affinity not determinable
T1 construct: expressed in transfected cells
T1 sequence (P0DMS8 1-318): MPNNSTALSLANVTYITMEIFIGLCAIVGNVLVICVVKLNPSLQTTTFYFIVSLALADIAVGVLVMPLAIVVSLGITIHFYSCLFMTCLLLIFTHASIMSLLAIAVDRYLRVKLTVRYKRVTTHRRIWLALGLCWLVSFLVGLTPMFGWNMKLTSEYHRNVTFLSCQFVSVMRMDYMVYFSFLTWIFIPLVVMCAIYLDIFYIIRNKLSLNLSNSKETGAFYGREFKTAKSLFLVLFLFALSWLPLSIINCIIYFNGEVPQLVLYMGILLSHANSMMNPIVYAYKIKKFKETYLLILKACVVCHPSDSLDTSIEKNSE
Procedure: (§1) CHO cells stably expressing the A3AR, A1AR, β1AR or β2AR were seeded into the central 60 wells (for high content confocal analysis) or every well (high throughput analysis) of a 96-well clear-bottomed, black-walled plate (Greiner BioOne) and grown to confluency. […] Cells were incubated for 1h at 37°C/5% CO2. Buffer was then removed from each well, cells washed once in HBSS and fresh HBSS added at room temperature. Plates were then immediately subjected to high content or HTS analysis as detailed below.
(§2) High throughput analysis was performed using a PHERAstar FS plate reader (BMG Technologies). […] Optimal focal height was determined automatically and total fluorescence intensity was assessed by taking 81 reads per well.
(§3) Competition binding curves were fitted to the following equation using GraphPad Prism 5 (GraphPad Software): […]
(§4) where [L] is the concentration and KD is the equilibrium dissociation constant of the fluorescent ligand.

[2] = biological target: T2, human A1AR (Homo sapiens, UniProt P30542); assay: as above; details: secondary screen of LOPAC hits; for Ki: 25 nM CA200645, mean ± SEM, n=3, read-out: A1AR pKi (selected LOPAC hits) (converted)
T2 construct: expressed in transfected cells
T2 sequence (P30542 1-326): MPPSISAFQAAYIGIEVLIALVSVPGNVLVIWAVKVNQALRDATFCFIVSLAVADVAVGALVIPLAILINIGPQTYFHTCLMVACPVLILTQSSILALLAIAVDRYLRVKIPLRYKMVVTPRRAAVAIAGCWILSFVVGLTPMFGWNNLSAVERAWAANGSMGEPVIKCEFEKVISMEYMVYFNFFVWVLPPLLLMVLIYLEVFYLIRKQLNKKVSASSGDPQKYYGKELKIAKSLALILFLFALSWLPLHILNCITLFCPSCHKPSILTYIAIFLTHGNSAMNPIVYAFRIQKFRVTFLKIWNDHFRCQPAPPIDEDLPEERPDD
Procedure: as §1, §2, §3, §4

[3] = biological target: T3, β2AR (Homo sapiens, UniProt P07550); assay: HTS (PHERAstar FS) fluorescent ligand competition binding in live CHO cells, 10 nM BODIPY-TMR-CGP tracer; details: for β2AR % Total binding at 10 μM: 10 μM compound, 10 nM BODIPY-TMR-CGP, mean ± SEM, n=3
T3 construct: expressed in transfected cells
T3 sequence (P07550 whole entry): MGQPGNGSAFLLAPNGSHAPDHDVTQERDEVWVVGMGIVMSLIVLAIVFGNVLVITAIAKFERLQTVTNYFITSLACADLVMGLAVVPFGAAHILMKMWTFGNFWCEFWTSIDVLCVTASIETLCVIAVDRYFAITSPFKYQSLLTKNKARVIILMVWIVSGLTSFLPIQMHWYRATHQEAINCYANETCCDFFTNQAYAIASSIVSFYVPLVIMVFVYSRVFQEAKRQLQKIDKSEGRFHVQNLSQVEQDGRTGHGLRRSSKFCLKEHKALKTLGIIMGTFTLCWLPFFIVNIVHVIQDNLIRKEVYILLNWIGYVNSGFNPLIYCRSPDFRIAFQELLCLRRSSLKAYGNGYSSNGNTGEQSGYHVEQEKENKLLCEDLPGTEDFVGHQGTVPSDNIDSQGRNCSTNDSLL
Procedure: as §1, §2, §3, §4

[4] = biological target: T1, human A3AR; assay: LOPAC library primary screen: single concentration (10 μM) inhibition of 25 nM CA200645 binding, PHERAstar FS
[5] = biological target: A1AR; details: cited from earlier work
[6] = biological target: T1, human A3AR; assay: HTS (PHERAstar FS) fluorescent ligand competition binding in live CHO cells, 5 nM AV039 tracer
Procedure: as §1, §2, §3, §4

[7] = biological target: A3AR; details: ref Stoddart et al. ([2012]); cited from earlier work
[8] = secondary screen of LOPAC hits, full inhibition curves, 25 nM CA200645, mean ± SEM, n=3, read-out: A3AR pKi (selected LOPAC hits) (converted)
[9] = % of control wells (1% DMSO and 25 nM CA200645), compounds at 10 µM, whole live cells expressing the A3AR, mean ± SD, three experiments in duplicate

O=c1c(O)c(-c2ccc(O)c(O)c2)oc2cc(O)cc(O)c12 [quercetin]
displacement of CA200645 binding at the A3AR in full inhibition curves [1]: only displaced the binding of CA200645 at the highest concentration tested

CC1=C(/C=C/C(C)=C/C=C/C(C)=C/C(=O)Nc2ccc(O)cc2)C(C)(C)CCC1 [Retinoic acid p-hydroxyanilide]
Ki [2]: 912 nM | Ki [1, 8]: 741 nM | β2AR % Total binding at 10 μM [3]: 102.7 ± 5.1% | % 25 nM CA200645 binding [4, 9]: 26.5 ± 2.0%

Cn1c(=O)c(-c2c(Cl)cccc2Cl)cc2cnc(Nc3ccc(N4CCOCC4)cc3)nc21 [PD173952, reference compound]
displacement of CA200645 binding at the A3AR in full inhibition curves [1]: only displaced the binding of CA200645 at the highest concentration tested | % 25 nM CA200645 binding [4]: 25.6 ± 5.3%

CA200645
Kd ([5]; ref Stoddart et al., [2012], read-out: KD of fluorescent ligand at the A1AR): 11 nM

Nc1nc2ccc(Cl)cc2c2nc(-c3ccco3)nn12 [CGS15943]
Ki [6]: 12.3 nM | Ki [1]: 12.3 nM | β2AR % Total binding at 10 μM [3]: 115.4 ± 5.0% | effect on binding of BODIPY-TMR-CGP at the β2AR ([3]; secondary screen of LOPAC hits): no effect | % Total CA200645 binding [4]: 30.0 ± 3.0% | Literature values (A3AR) [7]: 8.18

O=C1Cc2c([nH]c3ccc(Br)cc23)-c2ccccc2N1 [kenpaullone, reference compound]
displacement of CA200645 binding at the A3AR in full inhibition curves [1]: only displaced the binding of CA200645 at the highest concentration tested | % 25 nM CA200645 binding [4]: 30.6 ± 6.6%

Oc1ccc(/C=C/c2ccc(/C=C/c3ccc(O)cc3)c(Br)c2)cc1 [K114]
Ki [2]: 275 nM | Ki [1, 8]: 372 nM | β2AR % Total binding at 10 μM [3]: 95.8 ± 5.5% | % 25 nM CA200645 binding [4, 9]: 24.6 ± 5.8%

O=C(Cc1ccccc1)Nc1nc2ccc(Cl)cc2c2nc(-c3ccco3)nn12 [MRS1220]
Literature values (A1AR) ([5]; A1AR, ref Stoddart et al. ([2012])): 7.14

CC(=O)c1c(O)c(C)c(O)c(Cc2c(O)c3c(c(C(=O)/C=C/c4ccccc4)c2O)OC(C)(C)C=C3)c1O [rottlerin, reference compound]
displacement of CA200645 binding at the A3AR in full inhibition curves [1]: only displaced the binding of CA200645 at the highest concentration tested | % 25 nM CA200645 binding [4]: 22.8 ± 1.4%

CN(C)S(=O)(=O)c1ccc2c(c1)/C(=C/c1cc3c([nH]1)CCCC3)C(=O)N2 [SU 6656]
inhibition of CA200645 binding at the A1AR [2]: only inhibited binding at the highest concentration tested | Ki [1, 8]: 676 nM | β2AR % Total binding at 10 μM [3]: 128.4 ± 18.4% | % 25 nM CA200645 binding [4]: 17.3 ± 1.8%

Nc1nc(NCCc2ccc(O)cc2)nc2nc(-c3ccco3)nn12 [ZM241385]
Ki ([6]; CHO cells expressing A3AR, 5 nM AV039, PHERAstar HTS assay, mean ± SEM, read-out: pKi A3AR AV039 (converted)): 479 nM | Ki ([1]; CHO cells expressing A3AR, 25 nM CA200645, PHERAstar HTS assay, mean ± SEM, read-out: pKi A3AR CA200645 (converted)): 234 nM | Literature values (A3AR) [7]: 6.74

COc1ccccc1N1CCN(CCN2C(=O)CC3(CCCC3)CC2=O)CC1.Cl.Cl [BMY 7378 dihydrochloride]
% 25 nM CA200645 binding [4]: 82.8 ± 23.0%

Br.CCSC(=N)N [S-Ethylisothiourea hydrobromide]
% 25 nM CA200645 binding [4]: 91.5 ± 10.5%

COc1ccccc1N1CCN(CC(O)COc2cccc3ccccc23)CC1.Cl.Cl (centres unmarked) [Naftopidil dihydrochloride]
% 25 nM CA200645 binding [4]: 98.6 ± 14.2%

CN(C)CCOC(C)(c1ccccc1)c1ccccn1 (centres unmarked) [Doxylamine succinate]
% 25 nM CA200645 binding [4]: 107.4 ± 0.7%

CCOC(=O)C(C)(C)Oc1ccc(Cl)cc1 [Clofibrate]
% 25 nM CA200645 binding ([4]; % of control wells (1% DMSO and 25 nM CA200645), compounds at 10 µM, […], mean ± SD, three experiments in duplicate): 81.3 ± 24.9%

O=C(O)c1nn(Cc2ccc(Cl)cc2Cl)c2ccccc12 [Lonidamine]
% 25 nM CA200645 binding [4]: 94.6 ± 7.2%

CC(=O)O[C@]1(C(C)=O)CC[C@H]2[C@@H]3C=C(Cl)C4=CC(=O)[C@@H]5C[C@@H]5[C@]4(C)[C@H]3CC[C@@]21C [Cyproterone acetate]
% 25 nM CA200645 binding [4]: 95.6 ± 2.1%

CCCN1C[C@H](CSC)C[C@@H]2c3cccc4[nH]cc(c34)C[C@H]21 [Pergolide methanesulfonate]
% 25 nM CA200645 binding [4]: 82.8 ± 15.4%
